Test results as given in PubChem BioAssay AID1159563 (GlaxoSmithKline (GSK), 2015).
Activity calls are given as the source filed them. How the calls were made is not given here.

Tested on: HepG2 cytotoxicity
Assay: HepG2 cell cytotoxicity, cytotoxicity control (AID 1159563)

CCNc1cc(-c2ccccn2)nc(Nc2ccccc2)n1
IC50: 25 µM

Cc1cc(NC(=O)CC2CCCCC2)n(-c2nc3c(c(=O)[nH]2)CCC3)n1
IC50: > 100 µM (inactive)

Cc1ccc(NC(=O)C(C)n2nc([N+](=O)[O-])c(Br)c2C)cc1Cl (stereo unspecified)
IC50: 79 µM

Cc1cc(C#N)c([N+](=O)[O-])cc1Br
IC50: 32 µM

Cc1cc2cc(CNc3ccc4c(c3)OCO4)c(=O)n(CCO)c2cc1C
IC50: > 100 µM (inactive)

CN(Cc1ccccc1)Cc1nnnn1C1CCN(Cc2ccc(-n3ccnc3)cc2)CC1
IC50: > 100 µM (inactive)

O=C(NCC1CCCCN1C(=O)c1cccc2ccccc12)c1ccccc1 (stereo unspecified)
IC50: > 100 µM (inactive)

O=S(=O)(NCC(c1cccnc1)N1CCN(c2ccc(F)cc2)CC1)c1cccs1 (stereo unspecified)
IC50: > 100 µM (inactive)

CCC(=O)Nc1ccc(C(=O)Nc2ccccc2-c2ccccc2)cc1
IC50: > 100 µM (inactive)

Cc1nc(N2CC(C)OC(C)C2)sc1C(=O)Nc1ccc2c(c1)OCO2 (stereo unspecified)
IC50: > 100 µM (inactive)

O=C(O)[C@H]1C[C@@H]1c1ccc(-c2ccc(CN(CCc3ccccn3)C(=O)C3CCC3)cc2)cc1
IC50: > 100 µM (inactive)

Cc1cc(C)cc(NS(=O)(=O)c2cc(-c3cc(C)[nH]n3)ccc2C)c1
IC50: 63 µM

Cc1nn2c(NCCCO)c3c(nc2c1-c1cccs1)CCC3
IC50: > 100 µM (inactive)

Nc1ncnc2c1ncn2[C@@H]1O[C@H](CO)C[C@H]1O
IC50: > 100 µM (inactive)

COCc1cc(Nc2cccc(Cl)c2)nc(-c2ccccn2)n1
IC50: 40 µM

CC(C)C[C@H](NC(=O)c1ccc(-c2ccccc2)o1)C(=O)NC1(C#N)CC1
IC50: > 100 µM (inactive)

CNC(=O)C1Cc2ccccc2N1C(=O)COc1cccc(OC)c1 (stereo unspecified)
IC50: > 100 µM (inactive)

Cc1cc(Br)sc1CNCCCNc1cc(=O)c2ccccc2[nH]1
IC50: 40 µM

COc1cccc(Nc2cc(C)nc(-c3ccccn3)n2)c1
IC50: 50 µM

CC1CCCCN1C(=O)NCCc1coc(-c2ccc(F)cc2)n1 (stereo unspecified)
IC50: > 100 µM (inactive)

Clc1ccc(C(CC2CCCCO2)Cn2cncn2)c(Cl)c1 (stereo unspecified)
IC50: > 100 µM (inactive)

COc1ccc(Nc2nccc(N(C)c3n[nH]c4c(F)cccc34)n2)cc1S(C)(=O)=O
IC50: 20 µM

NC(=O)c1ncc(N[C@@H]2CCCNC2)nc1Nc1cccc(Cl)c1
IC50: 10 µM

COc1ccccc1C(=O)Nc1nnc(-c2ccc3c(c2)OCO3)s1
IC50: > 100 µM (inactive)

CN(CCOc1ccc(Cl)cc1)Cc1nc(N)nc(N(C)C)n1
IC50: > 100 µM (inactive)

O=C(Nc1nc(-c2ccccn2)cs1)C1CCc2ccccc2C1 (stereo unspecified)
IC50: 40 µM

CC(C)n1c(-c2nonc2N)nc2cccc(OCCN3CCCC3)c21
IC50: > 100 µM (inactive)

Cc1nn(C2CCS(=O)(=O)C2)c(C)c1CN(C)C(=O)C=Cc1sc2ccccc2c1Cl (stereo unspecified)
IC50: > 100 µM (inactive)

O=C(Nc1nc2ccccc2[nH]1)c1ccc2nc[nH]c2c1
IC50: 50 µM

CC(C)c1cc(C(=O)N2CCCC(c3cc4ncccc4[nH]3)C2)on1 (stereo unspecified)
IC50: > 100 µM (inactive)

CC1CN(Cc2ccc(C#N)cc2)CCN1c1ccc(NC(=O)c2ccccc2F)cc1 (stereo unspecified)
IC50: > 100 µM (inactive)

CN1CCCN(C(=O)c2ccc(N3CCCC3)cc2Cl)CC1
IC50: > 100 µM (inactive)

CN(Cc1nc2ccccc2s1)C(=O)C=Cc1cc2ccccc2o1
IC50: > 100 µM (inactive)

COc1ncc(-c2ccc3nccc(-c4ccncc4)c3c2)cc1NS(=O)(=O)C1CC1
IC50: > 100 µM (inactive)

OC[C@@H](Nc1nccc(-c2c(-c3ccc(F)cc3)ncn2C2CCNCC2)n1)c1ccccc1
IC50: 100 µM

NC(=O)c1ccccc1Nc1nc(NC2CCCCC2)nc2[nH]ccc12
IC50: 20 µM

CC(=O)Nc1ccc(-c2cnc(N)c(-c3nc4ccc(F)cc4[nH]3)c2)cc1
IC50: 10 µM

COc1ccc(-c2cc(C)no2)cc1S(=O)(=O)Nc1ccc(F)c(Cl)c1
IC50: 79 µM

Cc1cc(Nc2cc(C3CC3)[nH]n2)nc(N2CCC[C@H]2C(N)=O)n1
IC50: > 100 µM (inactive)

CC(C)COC(=O)Nc1ccc(N2CCC(CNS(=O)(=O)c3ccccc3)CC2)c(F)c1
IC50: > 100 µM (inactive)

CCN(C)Cc1ccc(N2CCC(NS(=O)(=O)c3ccc4c(c3)CCO4)CC2)nc1
IC50: > 100 µM (inactive)

COc1ccc(S(=O)(=O)NCc2ccc(-c3ccc(CN(C)CCO)cc3)cc2)cc1
IC50: 50 µM

O=C(c1ccccc1)N1CCC(C(=O)N2CCC(Oc3ccccc3Cl)CC2)CC1
IC50: > 100 µM (inactive)

CNC(=O)C1Cc2ccccc2N1C(=O)Cc1ccc(OC)cc1 (stereo unspecified)
IC50: > 100 µM (inactive)

Cc1ccccc1NS(=O)(=O)c1ccc2[nH]cc(C(=O)NC3CCCCC3)c(=O)c2c1
IC50: 32 µM

CCc1c(C)nc(-n2nc(C)cc2NC(=O)COc2ccccc2F)[nH]c1=O
IC50: > 100 µM (inactive)

COCCn1c(-c2ccccc2)cnc1NCc1ccccc1OC
IC50: 20 µM

O=C(NCc1ccc(Cl)cc1)C1CN(C(=O)c2ccc(F)cc2)CCS1 (stereo unspecified)
IC50: > 100 µM (inactive)

COc1ccc(Nc2nc(NC3CCC(O)CC3)ncc2Br)c(C(N)=O)c1 (stereo unspecified)
IC50: > 100 µM (inactive)

CCOc1ccc(CN(C)Cc2nc(N)nc(Nc3ccc(C)cc3)n2)cc1
IC50: 32 µM

Cc1[nH]n2c(=O)c3c(nc2c1-c1ccc(Cl)cc1)CCCC3
IC50: > 100 µM (inactive)

CCn1nccc1CN(C)C(=O)C=Cc1ccc(Cl)cc1
IC50: > 100 µM (inactive)

CNc1nc(C)nc(N2CCc3cc(C(=O)NCc4ccc(-c5nccn5C)cc4Cl)ccc32)n1
IC50: 32 µM

Cn1nc(C(=O)N2CCc3ccccc32)c2c1CCS(=O)(=O)C2
IC50: > 100 µM (inactive)

O=c1ccn(-c2ccc([N+](=O)[O-])cc2Cl)c2ccc(F)cc12
IC50: > 100 µM (inactive)

Cc1cnc(Nc2cc(Cc3ccccc3)nc(NC3CCC(O)CC3)n2)s1 (stereo unspecified)
IC50: 25 µM

COc1ccc(S(=O)(=O)NC(C)C)cc1Nc1ncc(-c2cccc(F)c2)cn1
IC50: > 100 µM (inactive)

O=C1CN(C(=O)c2cccc(Nc3ncc(-c4ccc5c(c4)OCO5)cn3)c2)CCN1
IC50: > 130 µM (inactive)

CC(=O)NC1(c2ccccc2)CCN(CC(=O)Nc2ccccc2-c2ccccc2)CC1
IC50: > 100 µM (inactive)

N#Cc1cnc(Nc2cccc(CCN3CCOCC3)c2)nc1Nc1ccccc1C(N)=O
IC50: 25 µM

O=C(Nc1nccs1)c1ccccc1Cn1cc([N+](=O)[O-])cn1
IC50: > 100 µM (inactive)

CCCN(Cc1ccc(OC)c(OC)c1)Cc1cc(=O)c2c(C)cc(C)cc2[nH]1
IC50: 63 µM

CC(C)(C)c1cc(NC2CC2)nc(-c2ccccn2)n1
IC50: > 100 µM (inactive)

O=C1COC(c2ccccc2)(c2ccccc2)CN1C1CCN(Cc2ccc(-n3ccnc3)cc2)CC1
IC50: 50 µM

O=C(NCCc1ccccc1Cl)c1cccn1-c1cccnc1
IC50: > 100 µM (inactive)

CC(=O)Nc1ccc(-c2ccnc(Nc3cccc(C#N)c3)n2)cc1
IC50: > 100 µM (inactive)

CC(c1cc(Cl)cc(Cl)c1)N(C)c1ncc2c(N)nc(N)nc2n1 (stereo unspecified)
IC50: 63 µM

COc1ccc(-c2ccc3nnc(-c4ccc(O)c(OC)c4)n3c2)cn1
IC50: > 100 µM (inactive)

N#Cc1cccc(CN2CCC(c3nc(-c4ccc(C(F)(F)F)nc4)no3)CC2)c1
IC50: > 100 µM (inactive)

CS(=O)(=O)c1ccc(Nc2nccc(Nc3n[nH]c4ccc(F)cc34)n2)c(F)c1
IC50: 79 µM

O=C(N[C@H](CO)c1ccccc1)c1ccc(-c2c[nH]c3nccc(C(F)(F)F)c23)s1
IC50: 63 µM

CNS(=O)(=O)c1ccccc1Nc1nc(Nc2cc(C)nn2C)ncc1Cl
IC50: 4 µM

Cc1nc(-c2nc(NCc3ccc(Cl)cc3)c3cccnc3c2O)n[nH]1
IC50: 16 µM

CC(c1ccccn1)N(C)Cc1nc2ccccc2n1C(C)C (stereo unspecified)
IC50: 25 µM

COc1ccc(C2CC(c3ccc(NS(C)(=O)=O)cc3)=NN2C(=O)c2cccs2)cc1OC (stereo unspecified)
IC50: > 100 µM (inactive)

Cc1cc(Nc2ccc(C#N)c(Cl)c2C)n[nH]1
IC50: > 100 µM (inactive)

NCc1ccc2c(Cl)cc(Cl)c(O)c2n1
IC50: 25 µM

O=C(c1cc2cc(Cl)ccc2[nH]1)N1CCCCC1c1cccnc1 (stereo unspecified)
IC50: 40 µM

Fc1ccc(OC2CC(NCc3cccc4cn[nH]c34)C2)cc1C(F)(F)F (stereo unspecified)
IC50: 25 µM

c1ccc(-c2nc(NC3CCCC3)c3ccccc3n2)nc1
IC50: 16 µM

CC(C(=O)Nc1ccc(Br)cc1)N1CCN(c2ccc([N+](=O)[O-])cc2)CC1 (stereo unspecified)
IC50: > 100 µM (inactive)

CC(C)S(=O)(=O)c1ccc(-c2cnc(N)c3cc(-c4ccnc(N)n4)ccc23)cc1
IC50: 16 µM

CC(C(=O)Nc1ccccc1F)N(C)CC(=O)Nc1cccc2ccccc12 (stereo unspecified)
IC50: > 100 µM (inactive)

c1cncc(CN(Cc2ccco2)Cc2cn[nH]c2-c2cccs2)c1
IC50: > 100 µM (inactive)

Cn1cc(CN2CCN(c3ccc4c(c3)CCN(C(=O)[C@H]3C[C@@H]3c3ccccc3)CC4)CC2)cn1
IC50: 50 µM

COc1cccc(-c2c(C)nn(-c3nc(N)nc(-c4ccccn4)n3)c2N)c1
IC50: > 100 µM (inactive)

CN(Cc1nc2c(C(=O)N3CCN(Cc4ccccc4)CC3)cccc2[nH]1)C1CCCc2cccnc21 (stereo unspecified)
IC50: 13 µM

NC(=O)c1ncccc1Nc1nc(NC2CCC(O)CC2)ncc1Br (stereo unspecified)
IC50: > 100 µM (inactive)

CCN(Cc1cccs1)C(=O)CSc1nnc(-c2ccc3c(c2)OCO3)o1
IC50: > 100 µM (inactive)

CN(C)Cc1cccc(Nc2nccc(-c3ccc(NCCN)c(C#N)c3)n2)c1
IC50: 25 µM

CN(C)CCN(C)Cc1ccc(F)cc1NS(=O)(=O)c1ccc(Cl)c(Cl)c1
IC50: 40 µM

O=C(NC1CCN(C2Cc3ccc(NS(=O)(=O)c4cc(F)cc(F)c4)cc3C2)CC1)C1CC1 (stereo unspecified)
IC50: > 100 µM (inactive)

CC(=O)NCCNc1cc(-c2ccnc(Nc3cccc(Cl)c3)n2)ccn1
IC50: 25 µM

CCC1Oc2cc(S(=O)(=O)N(C)CC(=O)N3CCc4ccccc4C3)c(C)cc2NC1=O (stereo unspecified)
IC50: > 100 µM (inactive)

CNC(=O)C1Cc2ccccc2N1C(=O)Cc1ccc(F)cc1 (stereo unspecified)
IC50: > 100 µM (inactive)

CCS(=O)(=O)c1cccc(C(=O)Nc2nc(-c3ccccn3)cs2)c1
IC50: 25 µM

COc1cnc2ccc(=O)n(CCN3CCC(NC(=O)c4ccc(Cl)cc4)CC3)c2c1
IC50: > 100 µM (inactive)

O=C(NCCCn1cnc2ccccc21)c1ccc(NC(=O)c2ccco2)cc1
IC50: 16 µM

O=C(Nc1ccc(-c2nc3ccccc3c(=O)[nH]2)cc1)c1cccs1
IC50: > 100 µM (inactive)

COc1cc(C(C)C)c(S(C)(=O)=O)cc1C(=O)N1CCN(c2ccccc2Cl)CC1
IC50: > 100 µM (inactive)

Clc1cc(Br)ccc1OCCCCn1ccnc1
IC50: 50 µM
